Results on five molecules are retold here after article PMC4157654, “Orthogonal functionalisation of α-helix mimetics” (Organic & Biomolecular Chemistry, 2014).

Each structure is given as a SMILES string.

One experiment concerns the target T1, Mcl-1/NOXA-B interaction (Homo sapiens, UniProt Q07820).
T1 construct: The pet28a His-SUMO Mcl-1 (172-327) construct was over-expressed; His (N, cleaved yes); SUMO (N, cleaved yes); made in house; host or cells: E. coli Rosetta 2
The experiment can be described thus: Fluorescence anisotropy competition assay, Mcl-1/NOXA-B. It counts as binding. The note with it: Mcl-1 150 nM, FITC-NOXA-B 50 nM, phosphate buffer pH 7.5. On the procedure:
Determination of the binding of FITC-NOXA-B to Mcl-1
The procedure followed was adapted from our previous paper on O-alkylated aromatic oligoamides.1 […]
Briefly: Mcl-1 was serially diluted (446 pM – 5 μM) into a solution of FITC-NOXA-B (25 nM) (40 […]
mM Sodium phosphate buffer pH 7.54, 200 mM NaCl, 0.02 mg/ml of bovine serum albumin) – the […]
total volume of each well was 100 μL, the plates were allowed to incubate at room temperature for 45 […]
minutes. Each experiment was run in triplicate and the fluorescence anisotropy measured using a […]
Perkin Elmer EnVisionTM 2103 MultiLabel plate reader, with excitation at 480 nm and emission at […]
535 nm ([…] bandwidth) and the intensity (Eq. 1) was calculated for each point. This was used to […]
calculate anisotropy (Eq. 2) and plotted to a sigmoidal fit in Origin 7 to determine the minimum and […]
maximum anisotropies (rmin and rmax). Using equation 3, the data for the anisotropy was converted to […]
fraction bound and multiplied by the FITC-NOXA-B concentration then fitted in origin 7 (Eq. 4) to […]
From a plot of intensity (Eq. 1) against […]
concentration of protein λ was calculated to be 1. […]
{(k + x + [FL] - {(k + x + [FL]2 - 4x[FL]} r = anisotropy, I = total intensity, P = perpendicular intensity, S = parallel intensity, Lb = fraction ligand bound, λ = Ibound/Iunbound = 1, [FL] = concentration of fluorescent ligand, k1 = Kd , y = Lb* FITC- […]
NOXA-B and x = [added titrant], G is an instrument factor set to 1.
Figure S4 - Fluorescence anisotropy titration assays for the addition of FITC-NOXA-B to a constant […]
concentration of Mcl-1. Performed in phosphate buffer pH 7.5, 200 mM NaCl, 0.02 mg/ml BSA.
In order to set up displacement assay conditions Mcl-1 and FITC-labelled NOXA-B concentrations […]
were fixed and the tracer peptide was displaced with unlabelled NOXA-B.
Figure S5 – Fluorescence anisotropy competition assay testing the inhibition of unlabelled NOXA-B […]
against the Mcl-1/NOXA-B interaction. Performed in phosphate buffer pH 7.5, 200 mM NaCl, 0.02 […]
mg/ml BSA. Mcl-1 is fixed as 150 nM and FITC-NOXA-B is at a concentration of 50 nM. […]
Figure S7 – Fluorescence anisotropy competition assay testing the inhibition of the trimers against the Mcl-1/NOXA-B interaction; unfunctionalised trimer 1 and acid, ethylene glycol and coumarin- […]
BSA. Mcl-1 is fixed as 150 nM and FITC-NOXA-B is at a concentration of 50 nM.
On the technique in general: Polarisation of emitted light reports the rotation of a fluorescent probe.

In another experiment the target is T2, p53/hDM2 interaction (Homo sapiens, UniProt Q00987).
T2 construct: hDM2 17-126 was diluted into buffer; made in house
The experiment can be described thus: Fluorescence anisotropy competition assay, p53/hDM2. Type of experiment: binding. The note with it: hDM2 154 nM, FITC-p53 54.5 nM, phosphate buffer pH 7.5, 200 mM NaCl, 0.02 mg/ml BSA. Here is the method:
The ability of the trimers to inhibit the p53/hDM2 interaction was then investigated using a fluorescence anisotropy competition assay (Fig. 3a). Briefly, a fluorescein-labelled p53 peptide is initially bound to hDM2 and displaced by increasing concentrations of inhibitor leading to a measurable decrease in anisotropy from which IC50 values can be determined, Table 1.
(§1) Fig. 3 Fluorescence anisotropy binding assays in phosphate buffer pH 7.5, 200 mM NaCl, 0.02 mg ml^–1 BSA. (a) p53/hDM2 competition assay hDM2 is fixed as 154 nM and FITC-p53 is at a concentration of 54.5 nM. (b) Direct binding assay of trimer 5 binding to hDM2 or Mcl-1. Compound 5 is fixed at 50 nM.
Figure S6 – Fluorescence anisotropy competition assay testing the inhibition of the trimers against the p53/hDM2 interaction; unfunctionalised trimer 1 and acid, ethylene glycol and coumarin-functionalised trimers 2, 3 and 4. Performed in phosphate buffer pH 7.5, 200 mM NaCl, 0.02 mg/ml BSA. h DM2 is fixed as 154 nM and FITC-p53 is at a concentration of 54.5 nM. […]

A further experiment concerns the target T3, Bcl-xL/BAK interaction (Homo sapiens, UniProt Q07817).
T3 construct: made in house
Kind of experiment: Fluorescence anisotropy competition assay, Bcl-xL/BAK. It counts as binding. The note with it: Bcl-xL 131 nM, BODIPY-BAK 43 nM, phosphate buffer pH 7.5. Here is the method: Figure S8 – Fluorescence anisotropy competition assay testing the inhibition of the trimers against the Bcl-x L/BAK interaction; unfunctionalised trimer 1 and acid, ethylene glycol and coumarin-functionalised trimers 2, 3 and 4. Performed in phosphate buffer pH 7.5, 200 mM NaCl, 0.02 mg/ml
BSA. Bcl-x L is fixed as 131 nM and BODIPY-BAK is at a concentration of 43 nM.
The observed increase in anisotropy is likely to be the result of aggregation of the trimer to the BAK […]
tracer and Bcl-x L complex. […]
In all experiments the G factor, or ratio between the efficiency of the S(ame) and P(erpendicular) channels was set to 1. […]

Another experiment deals with T4, Mcl-1 (Homo sapiens, UniProt Q07820).
T4 construct: The pet28a His-SUMO Mcl-1 (172-327) construct was over-expressed; His (N, cleaved yes); SUMO (N, cleaved yes); made in house; host or cells: E. coli Rosetta 2
The experiment can be described thus: Fluorescence anisotropy direct binding assay, Mcl-1. The conditions noted are these: trimer fixed at 50 nM, read-out: Kd obtained through direct titration, Mcl-1. Here is the method: as §1
(§2) The fluorescently tagged trimers 4 and 5 were designed for use in direct binding experiments. We observed that upon ‘click’ reaction, the fluorescence of the coumarin group in trimer 4 was quenched (Fig. S14 ^†). This trimer was therefore tested in the fluorescence anisotropy competition assays as described above (Fig. S7 and S8 ^†). […] Direct binding experiments were performed using both fluorescence anisotropy (Fig. 3b) and microscale thermophoresis[52] (Fig. S12 ^†). […] The same fluorescence anisotropy experiment was then carried out for Mcl-1 and Bcl-xL. […] The absence of selectivity between hDM2 and Mcl-1 in this instance may arise as a consequence of non-specific interactions imparted by the fluorescein group – we note that K d is lower for 5 than the IC50's observed for both 2 and 3 which would support this hypothesis.
Figure S9 - Change of intensity during addition of hDM2 used to calculate λ.
Mcl-1172-327 was diluted into buffer across the 24 wells from 200 μM to 18 nM. […] Ligand bound was calculated from Eq. 3 using λ =
2.31. K d was calculated from Eq. 4. […]

In a further experiment the target is T5, Bcl-xL (Homo sapiens, UniProt Q07817).
T5 construct: made in house
The experiment can be described thus: Fluorescence anisotropy direct binding assay, Bcl-xL. The note with it: trimer fixed at 50 nM. On the procedure: as §2
Figure S10 - Change of intensity during addition of Mcl-1 used to calculate λ.
Anisotropy Direct Binding to Bcl-x L
Figure S11 – Anisotropy direct binding of Compound 5 to Bcl-x L at a fixed concentration of 5 of 50
nM. Performed in phosphate buffer pH 7.5, 200 mM NaCl, 0.02 mg/ml BSA. […]

Experiment [1] deals with T6, hDM2 (Homo sapiens, UniProt Q00987).
T6 construct: hDM2 17-126 was diluted into buffer; made in house
Kind of experiment: Microscale thermophoresis direct binding to hDM2. The conditions noted are these: trimer fixed at 50 nM, phosphate buffer pH 7.5. On the procedure:
as §2
Thermophoresis Direct Binding to h DM2
Figure S12 – Direct binding of Compound 5 to hDM2 measured using thermophoresis at a fixed […]
concentration of 5 of 50 nM. […] Performed in phosphate buffer pH 7.5, 200 mM NaCl, […]
The larger errors at lower protein concentration are possibly the result of non-specific binding of the fluorescent trimer to the thermophoresis capillaries.
Fluorescence and Absorbance Characterisation of Trimers 4 and 5 […]
(1 picture or pasted object on this page, not shown here)
For orientation: Microscale thermophoresis detects binding through changes in fluorescence in a small temperature gradient.

In experiment [2] the target is T6, hDM2. The experiment can be described thus: Fluorescence anisotropy direct binding assay, hDM2. The note with it: trimer fixed at 50 nM, read-out: Kd obtained through direct titration, hDM2. Here is the method: as §1
The fluorescently tagged trimers 4 and 5 were designed for use in direct binding experiments. We observed that upon ‘click’ reaction, the fluorescence of the coumarin group in trimer 4 was quenched (Fig. S14 ^†). This trimer was therefore tested in the fluorescence anisotropy competition assays as described above (Fig. S7 and S8 ^†). […] Direct binding experiments were performed using both fluorescence anisotropy (Fig. 3b) and microscale thermophoresis[52] (Fig. S12 ^†). […] The same fluorescence anisotropy experiment was then carried out for Mcl-1 and Bcl-xL. […]
Figure S8 – Fluorescence anisotropy competition assay testing the inhibition of the trimers against the Bcl-x L/BAK interaction; unfunctionalised trimer 1 and acid, ethylene glycol and coumarin-functionalised trimers 2, 3 and 4. […]
Direct Binding Assay Development hDM2 17-126 was diluted into buffer across the 24 wells from 400 μM to 36 nM. […] Ligand bound was calculated from Eq. 3 using λ =
2.06. K d was calculated from Eq. 4. […]

As for `CC(C)CN(C(=O)c1ccc(N(Cc2cccc3ccccc23)C(=O)c2ccc(NCc3ccccc3)cc2)cc1)c1ccc(C(=O)NCC(=O)O)cc1` [Trimer 1], the values for the IC50 at Mcl-1/NOXA-B interaction and on p53/hDM2 interaction were over 70 µM and 12.3 ± 0.4 µM, respectively. For the same molecule, the “IC50 Bcl-xL/BAK” value at Bcl-xL/BAK interaction is “No inhibition”.
The corresponding values for `CC(C)CN(C(=O)c1ccc(N(Cc2cccc3ccccc23)C(=O)c2ccc(NCc3ccccc3)cc2)c(OCc2cn(CCOCCOCCOCCO)nn2)c1)c1ccc(C(=O)NCC(=O)O)cc1` [Trimer 3] are over 70 µM, 42 ± 6 µM and “No inhibition”.
The corresponding values for `CC(C)CN(C(=O)c1ccc(N(Cc2cccc3ccccc23)C(=O)c2ccc(NCc3ccccc3)cc2)c(OCc2cn(CCCNC(=O)c3cc4ccccc4oc3=O)nn2)c1)c1ccc(C(=O)NCC(=O)O)cc1` [Trimer 4] are over 70 µM, 20.3 ± 0.3 µM and “No inhibition”.
Turning to `CC(C)CN(C(=O)c1ccc(N(Cc2cccc3ccccc23)C(=O)c2ccc(NCc3ccccc3)cc2)c(OCc2cn(CCCNC(=S)Nc3ccc(-c4c5ccc(=O)cc-5oc5cc(O)ccc45)c(C(=O)O)c3)nn2)c1)c1ccc(C(=O)NCC(=O)O)cc1` [Trimer 5], the values for the Kd at Mcl-1, at hDM2 [1] and at hDM2 [2] were 13 ± 4 µM, 11 ± 2 µM and 20 ± 6 µM, respectively. For the same molecule, on Bcl-xL, the “Direct binding to Bcl-xL” value was “no binding was observed”.
With `CC(C)CN(C(=O)c1ccc(N(Cc2cccc3ccccc23)C(=O)c2ccc(NCc3ccccc3)cc2)c(OCc2cn(CC(=O)O)nn2)c1)c1ccc(C(=O)NCC(=O)O)cc1` [Trimer 2], the IC50 at Mcl-1/NOXA-B interaction is over 70 µM; at p53/hDM2 interaction, 40 ± 5 µM. In addition, the “IC50 Bcl-xL/BAK” value at Bcl-xL/BAK interaction is “No inhibition”.

As usually defined, the IC50 is the concentration that gives 50% inhibition. A lower IC50 goes with greater potency in that assay.
